{"source": "patent US20220002400A1", "about": "(priority 2019, published 2022)", "assay_type_in_all_cases": "cell-based", "key": {"A549 cells": {"tested_on": "A549 cells", "settings": "100 nM for 1 hour at 37° C."}, "Influenza A PR8 virus [1]": {"tested_on": "Influenza A PR8 virus"}, "Influenza A PR8 virus [2]": {"tested_on": "Influenza A PR8 virus", "settings": "10 nM"}}, "note": "“And” between values parts separate entries of the source, which are not always exact repeats. Identical values can stand only once."}
{"smiles": "CO/C1=C\\C(C)=C\\[C@@H](C)[C@@H](O)[C@@H](C)C/C(C)=C/C=C/[C@H](OC)[C@@H]([C@@H](C)[C@@H](O)[C@H](C)[C@@]2(O)C[C@@H](O)[C@H](C)[C@@H](C(C)C)O2)OC1=O", "note": "[BafA, Bafilomycin A]", "values": [{"measurement": "lysotracker staining", "setting": "A549 cells", "value": "a decrease in lysotracker staining was observed"}, {"measurement": "protection against IAV infection (percentage of HA+ cells)", "setting": "Influenza A PR8 virus [1]", "value": "further protected the KO cells against IAV infection"}]}
{"smiles": "COC(=O)OCOc1c2n(ccc1=O)N([C@@H]1c3ccccc3SCc3c1ccc(F)c3F)[C@@H]1COCCN1C2=O", "note": "[baloxavir marboxil]", "values": [{"measurement": "effect of baloxavir marboxil treatment combined with CRISPR deletion on Influenza A virus infection", "setting": "Influenza A PR8 virus [2]; 1 nM, 5 nM", "value": "synergistic effect with baloxavir marboxil treatment but to a lesser extent compared to CMTR1"}, {"measurement": "reduction of the rate of Influenza A virus infection compared to untreated cells, according to Hemagglutinin staining", "setting": "Influenza A PR8 virus [2]", "value": "58% and 91%"}]}
